Data from patent US20260325533A1, “CDK INHIBITOR COMPOUNDS” (ALEKSIA THERAPEUTICS, INC., priority 2023, published 2026).
pIC50: −log10 of the molar value. Where two headings read alike, the source gives them in different places.

Assays:
Format in all cases: biochemical
CDK2/CCNE1 = CDK2/CCNE1 (Homo sapiens, UniProt P24941); experiment: CDK2 homogeneous time-resolved fluorescence (HTRF) kinase assay; settings: CDK2/CCNE
Summary of the method: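 3 nM CDK2/CCNE1 was preincubated with compound for 20 min at 23 °C in HEPES buffer (pH not stated), then reacted 60 min with 1 mM ATP and 50 nM ULight-4E-BP1 (Thr37/46) peptide. After EDTA stop, Eu-anti-phospho-4E-BP1 antibody (2 nM) was added for 60 min and TR-FRET read at 665 nm.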

CDK1/CCNB1 = CDK1/CCNB1 (Homo sapiens, UniProt P06493); experiment: CDK1 homogeneous time-resolved fluorescence (HTRF) kinase assay; settings: >250 nM; CDK1/CCNB; read-out: CDK1/CCNB IC50 >250 nM
Summary of the method: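 CDK1/CCNB1 0.5 nM + cpd, 20 min 23 °C; add 1 mM ATP, 50 nM ULight-4E-BP1 peptide, 60 min 23 °C; stop 10 mM EDTA; 2 nM Eu-Ab, 60 min; HTRF 665 nm. 11-pt half-log, top 10 μM typical; IC50.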

CDK4/CCND3 = CDK4/CCND3 (Homo sapiens, UniProt P11802); experiment: CDK4 homogeneous time-resolved fluorescence (HTRF) kinase assay; settings: >250 nM; CDK4/CCND; read-out: CDK4/CCND IC50, >250 nM
Summary of the method: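 CDK4/CCND3 at 1.5 nM was preincubated with compound for 20 min at 23 °C, then reacted for 60 min with 1 mM ATP and 50 nM ULight-4E-BP1 (Thr37/46) peptide. The reaction was stopped with EDTA, and phosphorylation was read by HTRF with a Eu-anti-phospho antibody. IC50 values came from 11-point half-log titrations, typically from 10 μM.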

CDK6/CCND1 = CDK6/CCND1 (Homo sapiens, UniProt Q00534); experiment: CDK6 homogeneous time-resolved fluorescence (HTRF) kinase assay; settings: >250 nM; CDK6/CCND; 1 mM ATP; read-out: CDK6/CCND IC50, >250 nM
Summary of the method: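 Enzyme pre-incubated 20 min at 23 °C with compound, then reacted 60 min at 23 °C with 1 mM ATP and 50 nM ULight-4E-BP1 (Thr37/46) peptide; 1 nM enzyme, 1% DMSO. EDTA-stopped, Eu-anti-phospho antibody TR-FRET read (665 nm or 665/615 ratio); 11-point half-log titration from 10 μM gave IC50.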

[1] = <25 nM, read-out: CDK2/CCNE IC50, <25 nM
[2] = 25-250 nM, read-out: CDK2/CCNE IC50, 25-250 nM

CDK6/CCND1, sequence (Q00534 whole entry): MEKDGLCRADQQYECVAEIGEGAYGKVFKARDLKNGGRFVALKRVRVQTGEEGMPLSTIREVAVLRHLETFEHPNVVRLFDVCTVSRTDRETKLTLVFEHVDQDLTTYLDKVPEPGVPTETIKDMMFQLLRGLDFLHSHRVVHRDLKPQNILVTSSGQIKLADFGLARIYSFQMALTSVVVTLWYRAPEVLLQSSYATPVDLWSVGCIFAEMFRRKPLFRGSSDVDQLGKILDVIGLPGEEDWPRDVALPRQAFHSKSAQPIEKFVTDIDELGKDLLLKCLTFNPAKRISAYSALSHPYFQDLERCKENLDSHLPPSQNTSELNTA
CDK6/CCND1, sequence (P24385 whole entry partner): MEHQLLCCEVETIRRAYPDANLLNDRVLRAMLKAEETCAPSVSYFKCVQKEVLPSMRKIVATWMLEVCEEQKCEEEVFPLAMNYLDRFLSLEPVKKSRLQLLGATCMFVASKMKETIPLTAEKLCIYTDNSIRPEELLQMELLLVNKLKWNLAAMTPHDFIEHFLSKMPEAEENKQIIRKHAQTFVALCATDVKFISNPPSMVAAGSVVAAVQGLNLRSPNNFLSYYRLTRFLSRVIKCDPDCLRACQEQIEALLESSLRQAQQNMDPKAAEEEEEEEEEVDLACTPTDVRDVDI
CDK4/CCND3, sequence (P11802 whole entry): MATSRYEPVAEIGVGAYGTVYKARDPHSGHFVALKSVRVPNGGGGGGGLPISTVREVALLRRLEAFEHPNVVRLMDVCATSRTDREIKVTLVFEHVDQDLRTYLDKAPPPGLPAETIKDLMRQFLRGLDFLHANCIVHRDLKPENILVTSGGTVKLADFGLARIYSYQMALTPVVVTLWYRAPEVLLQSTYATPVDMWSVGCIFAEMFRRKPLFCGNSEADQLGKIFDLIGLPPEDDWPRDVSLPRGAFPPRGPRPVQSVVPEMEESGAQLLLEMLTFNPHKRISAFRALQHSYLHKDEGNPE
CDK4/CCND3, sequence (P30281 whole entry partner): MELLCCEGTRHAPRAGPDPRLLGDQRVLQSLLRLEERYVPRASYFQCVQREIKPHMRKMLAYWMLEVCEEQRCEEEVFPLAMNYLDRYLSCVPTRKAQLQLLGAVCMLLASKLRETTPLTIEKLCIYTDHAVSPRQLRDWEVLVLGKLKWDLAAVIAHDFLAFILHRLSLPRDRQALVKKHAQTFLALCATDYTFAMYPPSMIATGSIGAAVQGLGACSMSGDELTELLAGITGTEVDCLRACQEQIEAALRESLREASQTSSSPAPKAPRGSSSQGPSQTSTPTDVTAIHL
CDK1/CCNB1, sequence (P06493 whole entry): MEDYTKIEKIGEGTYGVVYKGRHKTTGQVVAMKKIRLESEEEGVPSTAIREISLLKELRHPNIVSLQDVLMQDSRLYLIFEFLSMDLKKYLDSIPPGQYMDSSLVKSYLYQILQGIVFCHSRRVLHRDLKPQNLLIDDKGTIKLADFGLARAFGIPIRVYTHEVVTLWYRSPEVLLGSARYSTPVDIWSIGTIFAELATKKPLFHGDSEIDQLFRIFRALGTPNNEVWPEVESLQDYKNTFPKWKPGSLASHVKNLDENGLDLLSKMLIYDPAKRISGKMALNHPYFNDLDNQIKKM
CDK1/CCNB1, sequence (P14635 whole entry partner): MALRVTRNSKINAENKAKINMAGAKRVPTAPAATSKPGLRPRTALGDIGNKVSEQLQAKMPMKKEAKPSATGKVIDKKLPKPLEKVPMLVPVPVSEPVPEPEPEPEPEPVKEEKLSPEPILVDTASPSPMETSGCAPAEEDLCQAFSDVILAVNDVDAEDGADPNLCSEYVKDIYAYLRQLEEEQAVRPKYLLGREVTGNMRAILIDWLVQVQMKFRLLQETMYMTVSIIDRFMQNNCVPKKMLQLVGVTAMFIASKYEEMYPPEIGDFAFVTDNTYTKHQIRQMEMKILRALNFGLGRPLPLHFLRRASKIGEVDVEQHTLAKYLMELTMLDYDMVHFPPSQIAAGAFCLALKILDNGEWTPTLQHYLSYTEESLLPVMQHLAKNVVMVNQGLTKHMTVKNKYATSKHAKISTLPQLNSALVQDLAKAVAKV

SMILES	pIC50 (CDK2/CCNE1; [1])	pIC50 (CDK1/CCNB1)	pIC50 (CDK4/CCND3)	pIC50 (CDK6/CCND1)	pIC50 (CDK2/CCNE1; [2])	pIC50 (CDK2/CCNE1; >250 nM, read-out: CDK2/CCNE IC50, >250 nM)
COc1cnc(NS(=O)(=O)c2ccc(Nc3cc4c(-c5ccc6c(cnn6CC(O)(C(F)(F)F)C(F)(F)F)c5C)nccc4cn3)cc2)nc1N1CCOCC1 [Ex 702, N-(5-methoxy-4-morpholinopyrimidin-2-yl)-4-((5-(4-methyl-1-(3,3,3-trifluoro-2-hydroxy-2-(trifluoromethyl)propyl)-1H-indazol-5-yl)-2,6-naphthyridin-3-yl)amino)benzenesulfonamide]	> 7.60	< 6.60	< 6.60	< 6.60	–	–
COc1cc(NS(=O)(=O)c2ccc(Nc3cc4c(-c5ccc6c(cnn6CC(O)(C(F)(F)F)C(F)(F)F)c5C)nccc4cn3)cc2)nc(N2CCOCC2)c1 [Ex 703, N-(4-methoxy-6-morpholinopyridin-2-yl)-4-((5-(4-methyl-1-(3,3,3-trifluoro-2-hydroxy-2-(trifluoromethyl)propyl)-1H-indazol-5-yl)-2,6-naphthyridin-3-yl)amino)benzenesulfonamide]	–	< 6.60	< 6.60	< 6.60	6.60 to 7.60	–
COc1cc(N2CCOCC2)cc(NS(=O)(=O)c2ccc(Nc3cc4c(-c5ccc6c(cnn6CC(O)(C(F)(F)F)C(F)(F)F)c5C)nccc4cn3)cc2)n1 [Ex 704, N-(6-methoxy-4-morpholinopyridin-2-yl)-4-((5-(4-methyl-1-(3,3,3-trifluoro-2-hydroxy-2-(trifluoromethyl)propyl)-1H-indazol-5-yl)-2,6-naphthyridin-3-yl)amino)benzenesulfonamide]	–	< 6.60	< 6.60	< 6.60	6.60 to 7.60	–
COc1cc(N2CCOCC2)nc(NS(=O)(=O)c2ccc(Nc3cc4c(-c5ccc6c(cnn6CC(O)(C(F)(F)F)C(F)(F)F)c5C)nccc4cn3)cc2)n1 [Ex 707, N-(4-methoxy-6-morpholinopyrimidin-2-yl)-4-((5-(4-methyl-1-(3,3,3-trifluoro-2-hydroxy-2-(trifluoromethyl)propyl)-1H-indazol-5-yl)-2,6-naphthyridin-3-yl)amino)benzenesulfonamide]	> 7.60	< 6.60	< 6.60	< 6.60	–	–
Cc1c(-c2nccc3cnc(Nc4ccc(S(=O)(=O)Nc5cc(C(C)(C)O)ccn5)cc4)cc23)ccc2c1cnn2CC(O)(C(F)(F)F)C(F)(F)F [Ex 710, N-(4-(2-hydroxypropan-2-yl)pyridin-2-yl)-4-((5-(4-methyl-1-(3,3,3-trifluoro-2-hydroxy-2-(trifluoromethyl)propyl)-1H-indazol-5-yl)-2,6-naphthyridin-3-yl)amino)benzenesulfonamide]	> 7.60	< 6.60	< 6.60	< 6.60	–	–
Cc1c(-c2nccc3cnc(Nc4ccc(S(=O)(=O)Nc5cccc(C(C)(C)O)n5)cc4)cc23)ccc2c1cnn2CC(O)(C(F)(F)F)C(F)(F)F [Ex 711, N-(6-(2-hydroxypropan-2-yl)pyridin-2-yl)-4-((5-(4-methyl-1-(3,3,3-trifluoro-2-hydroxy-2-(trifluoromethyl)propyl)-1H-indazol-5-yl)-2,6-naphthyridin-3-yl)amino)benzenesulfonamide]	> 7.60	< 6.60	< 6.60	< 6.60	–	–
Cc1c(-c2nccc3cnc(Nc4ccc(S(=O)(=O)Nc5ccccc5N5CCOCC5)cc4)cc23)ccc2c1cnn2CC(O)(C(F)(F)F)C(F)(F)F [Ex 713, 4-((5-(4-methyl-1-(3,3,3-trifluoro-2-hydroxy-2-(trifluoromethyl)propyl)-1H-indazol-5-yl)-2,6-naphthyridin-3-yl)amino)-N-(2-morpholinophenyl)benzenesulfonamide]	–	< 6.60	< 6.60	< 6.60	6.60 to 7.60	–
COc1cccc(NS(=O)(=O)c2ccc(Nc3cc4c(-c5ccc6c(cnn6CC(O)(C(F)(F)F)C(F)(F)F)c5C)nccc4cn3)cc2)c1 [Ex 717, N-(3-methoxyphenyl)-4-((5-(4-methyl-1-(3,3,3-trifluoro-2-hydroxy-2-(trifluoromethyl)propyl)-1H-indazol-5-yl)-2,6-naphthyridin-3-yl)amino)benzenesulfonamide]	–	< 6.60	< 6.60	< 6.60	6.60 to 7.60	–
COc1ccc(NS(=O)(=O)c2ccc(Nc3cc4c(-c5ccc6c(cnn6CC(O)(C(F)(F)F)C(F)(F)F)c5C)nccc4cn3)cc2)cc1 [Ex 718, N-(4-methoxyphenyl)-4-((5-(4-methyl-1-(3,3,3-trifluoro-2-hydroxy-2-(trifluoromethyl)propyl)-1H-indazol-5-yl)-2,6-naphthyridin-3-yl)amino)benzenesulfonamide]	–	< 6.60	< 6.60	< 6.60	6.60 to 7.60	–
Cc1c(-c2nccc3cnc(Nc4ccc(S(=O)(=O)Nc5cccc(C(F)(F)F)n5)cc4)cc23)ccc2c1cnn2CC(O)(C(F)(F)F)C(F)(F)F [Ex 720, 4-((5-(4-methyl-1-(3,3,3-trifluoro-2-hydroxy-2-(trifluoromethyl)propyl)-1H-indazol-5-yl)-2,6-naphthyridin-3-yl)amino)-N-(6-(trifluoromethyl)pyridin-2-yl)benzenesulfonamide]	–	< 6.60	< 6.60	< 6.60	6.60 to 7.60	–

The next lines start with the values.

pIC50 (CDK2/CCNE1; [1])	pIC50 (CDK1/CCNB1)	pIC50 (CDK4/CCND3)	pIC50 (CDK6/CCND1)	pIC50 (CDK2/CCNE1; [2])	pIC50 (CDK2/CCNE1; >250 nM, read-out: CDK2/CCNE IC50, >250 nM)	SMILES
> 7.60	< 6.60	< 6.60	< 6.60	–	–	Cc1cnc(NS(=O)(=O)c2ccc(Nc3cc4c(-c5ccc6c(cnn6CC(O)(C(F)(F)F)C(F)(F)F)c5C)nccc4cn3)cc2)nc1N1CCOCC1 [Ex 706, 4-((5-(4-methyl-1-(3,3,3-trifluoro-2-hydroxy-2-(trifluoromethyl)propyl)-1H-indazol-5-yl)-2,6-naphthyridin-3-yl)amino)-N-(5-methyl-4-morpholinopyrimidin-2-yl)benzenesulfonamide]
–	< 6.60	< 6.60	< 6.60	6.60 to 7.60	–	COc1ccc(NS(=O)(=O)c2ccc(Nc3cc4c(-c5ccc6c(cnn6CC(O)(C(F)(F)F)C(F)(F)F)c5C)nccc4cn3)cc2)cc1C(C)(C)O [Ex 709, N-(3-(2-hydroxypropan-2-yl)-4-methoxyphenyl)-4-((5-(4-methyl-1-(3,3,3-trifluoro-2-hydroxy-2-(trifluoromethyl)propyl)-1H-indazol-5-yl)-2,6-naphthyridin-3-yl)amino)benzenesulfonamide]
–	< 6.60	< 6.60	< 6.60	6.60 to 7.60	–	Cc1c(-c2nccc3cnc(Nc4ccc(S(=O)(=O)Nc5cccc(C(C)(C)O)c5)cc4)cc23)ccc2c1cnn2CC(O)(C(F)(F)F)C(F)(F)F [Ex 712, N-(3-(2-hydroxypropan-2-yl)phenyl)-4-((5-(4-methyl-1-(3,3,3-trifluoro-2-hydroxy-2-(trifluoromethyl)propyl)-1H-indazol-5-yl)-2,6-naphthyridin-3-yl)amino)benzenesulfonamide]
–	< 6.60	< 6.60	< 6.60	6.60 to 7.60	–	COc1ccccc1NS(=O)(=O)c1ccc(Nc2cc3c(-c4ccc5c(cnn5CC(O)(C(F)(F)F)C(F)(F)F)c4C)nccc3cn2)cc1 [Ex 714, N-(2-methoxyphenyl)-4-((5-(4-methyl-1-(3,3,3-trifluoro-2-hydroxy-2-(trifluoromethyl)propyl)-1H-indazol-5-yl)-2,6-naphthyridin-3-yl)amino)benzenesulfonamide]
–	< 6.60	< 6.60	< 6.60	–	< 6.60	Cc1ccccc1NS(=O)(=O)c1ccc(Nc2cc3c(-c4ccc5c(cnn5CC(O)(C(F)(F)F)C(F)(F)F)c4C)nccc3cn2)cc1 [Ex 715, 4-((5-(4-methyl-1-(3,3,3-trifluoro-2-hydroxy-2-(trifluoromethyl)propyl)-1H-indazol-5-yl)-2,6-naphthyridin-3-yl)amino)-N-(o-tolyl)benzenesulfonamide]
–	< 6.60	< 6.60	< 6.60	6.60 to 7.60	–	COc1ccc(NS(=O)(=O)c2ccc(Nc3cc4c(-c5ccc6c(cnn6CC(O)(C(F)(F)F)C(F)(F)F)c5C)nccc4cn3)cc2)nc1 [Ex 719, N-(5-methoxypyridin-2-yl)-4-((5-(4-methyl-1-(3,3,3-trifluoro-2-hydroxy-2-(trifluoromethyl)propyl)-1H-indazol-5-yl)-2,6-naphthyridin-3-yl)amino)benzenesulfonamide]
